Article PMC8246065 (The EMBO Journal, 2021)

Experiments:
[1] = system: human dermal fibroblasts (HDFs); experiment: S1P quantification by ELISA in cell lysates; assay type: cell-based; conditions: primary fibroblasts, Fig 3C
Method: Human neonatal dermal fibroblasts were grown in DMEM full medium. For each condition, 2x T75 flask cells were required. After 4‐h stimulation with various stressors, cells were washed with PBS and collected in lysis buffer (20 mM PIPES PH7.4, 150 mM NaCl, 1 mM EGTA, 1% v/v Triton X‐100, 1.5 mM MgCl2, 0.1% SDS, 1X PhosSTOP, 1X Protease inhibitor cocktail without EDTA). Protein concentration was measured by BCA assay kit (Thermo Fisher) and diluted with delipidized serum to 1 µg/µl. Then, the diluted samples were added into S1P ELISA plates according to the instructions.

BMDMs and fibroblasts = experiment: Cell death upon stressor treatment; assay type: cell-based; conditions: same concentration
Method: Cell viability assays were performed with CellTiter 96 AQueous one solution reagent (Promega) according to the manufacturer’s instructions. Cell viability upon various stimulations was normalized to corresponding controls.

C[C@@H]1C[C@@H]([C@H](O)CC2CC(=O)NC(=O)C2)C(=O)[C@@H](C)C1 [CHX, cycloheximide]
Level of S1P in fibroblasts upon stressor [1]: highest level of S1P in fibroblasts | Cell death in BMDMs compared with fibroblasts (BMDMs and fibroblasts): higher
